The values below come from patent publication US12350250B2, “Aggrelytes for treating ocular conditions” (The Regents of the University of Colorado, a Body Corporate, priority 2022, dated 2025).

The test system of data set [1] is water-insoluble (WI) proteins from human lenses. Kind of data set: Solubilization of water-insoluble (WI) proteins from human lenses (BCA protein assay of supernatant). Format: biochemical. The following applies: 500 μM; for protein in the supernatant / solubilized protein, % of the initial WI protein / solubilized protein, % of the initial protein: ten human lenses (65 to 75 years). On the procedure:
Human lenses (donor age: 55-75 years) were obtained from Saving Sight, Kansas City, MO, and Lions Eye Institute for Transplant & Research, Tampa, FL. The lenses were harvested within 36 hours postmortem, stored with (when used for culturing) or without minimum essential medium (MEM), and shipped to the inventors' laboratory on ice or frozen on dry ice. Lenses shipped on dry ice (used in the presently described and other solubility studies) were stored at −80° C. until use. Each frozen lens was thawed on ice and homogenized with 1.5 mL of PBS in a hand-held glass homogenizer. The homogenate was centrifuged at 20,000×g for 20 min at 4° C. The supernatant was discarded, and the pellet was suspended in 1 mL of homogenization buffer and centrifuged at 20,000×g for 20 min at 4° C. The resulting pellet was lyophilized and designated the water-insoluble (WI) fraction.
In the present example, the ability of aggrelytes to solubilize WI proteins from a human lens was investigated. Stock solutions (10 mM) of Aggrelyte-2 and Aggrelyte-2C were prepared in 50 mM phosphate buffer. The WI fraction (2 mg) was incubated in 50 mM sodium phosphate buffer (0.4 mL), pH 7.4, at 37° C. with aggrelyte at a final concentration of 0-2000 μM. The mixture was incubated at 37° C. with shaking for 24 or 48 hours after adding 0.002% sodium azide to prevent bacterial growth. After incubation, the samples were centrifuged at 20,000×g for 20 min at 4° C., and the supernatants were collected. Protein in the supernatant was measured using a BCA Protein Assay Kit from Thermo Scientific (Waltham, MA) using BSA as the standard.
WI fractions from ten aged human lenses (65 to 75 years) were prepared as in Example 3. The WI fractions (2 mg) were incubated in 50 mM sodium phosphate buffer (0.4 mL), pH 7.4, at 37° C. with 500 μM aggrelyte for 24 or 48 hours. Each sample was separately processed three times and analyzed (mean±S.D.).

Data set [2] relates to human lenses. Description: AcK-bearing proteins in WS cortical and nuclear fractions of treated human lenses (Western blot). To be noted: 1 mM, 72 h, vs untreated controls. Here is the method: For Western blotting, 10-20 μg of protein from each lens sample was used and each sample was separately processed three times and analyzed.
For orientation: Immunoblotting shows a protein as a band on a membrane.

A further data set relates to human (60-62 years) lens. Kind of data set: Human lens transparency (separate study). To be noted: data not shown. The source says:
The reduction in stiffness was similar at 400- and 500-mg loads (FIGS. 21C and 21D, respectively).

For data set [3], the system named is human lenses. Description: Water-soluble (WS) protein content of aggrelyte-treated human lenses. To be noted: 1 mM, 72 h. Here is the method: Water soluble (WS) proteins were obtained from both mouse and human lenses. For mouse lenses, WS protein was obtained by homogenizing each mouse lens in 0.2 mL of PBS, followed by centrifugation at 20,000×g for 20 min at 4° C. […] The remaining nucleus was homogenized in 1 mL phosphate buffer. Both cortical and nuclear protein extracts were centrifuged at 20,000×g for 20 min at 4° C. to obtain the soluble protein in the supernatant. In another set of experiments, human lenses (42-64 years), following incubation with aggrelytes as described in the foregoing examples, were each homogenized with 1.5 mL 50 mM phosphate buffer, pH 7.4. The homogenate was centrifuged at 20,000×g for 20 min to obtain a supernatant. Protein in the supernatant was evaluated to determine the effect of aggrelyte treatment on the soluble protein content in the lens.

The next data set deals with γ-crystallin (γC). Description: Crystallin levels in solubilized human lens proteins (Western blot), γC. The following applies: 500 μM, solubilized proteins of three human lenses. Format: biochemical. On the procedure:
The contents of crystalline proteins [αA-crystallin (αAC), αB-crystallin (αBC), β-crystallin (βC), and γ-crystallin (γC)] in the solubilized proteins of three human lenses treated with either Aggrelyte-2 or Aggrelyte-2C (500 μM) from Example 4 were determined by Western blot analysis as described for Example 5. Membranes were incubated with antibodies against αAC (1:14,000 dilution; Enzo Life Sciences, Catalog #ADI-SPA-221D), αBC (1:700,000 dilution; University of Iowa), βC (1:14,000 dilution; Santa Cruz Biotechnology, Catalog #sc-22745), and γC (1:7,000 dilution; Santa Cruz Biotechnology, Catalog #sc-22746). The secondary antibodies were HRP-conjugated anti-mouse IgG for αBC and HRP-conjugated […] (Cell Signaling Technology, Catalog #7074S) for αAC, βC, and γC. According to the supplier, the […] detects mostly βB1-crystallin and, to a lesser extent, βA1/3, βA2, βA4, βB2, and βB3-crystallin. The γC antibody reacts with γA, γB, γC, γD, γE, and γF-crystallin.

The test system of another data set is mouse lenses. Description: Stiffness and axial strain of ex vivo mouse lenses (Example 10). Further details: species or system mouse (C57BL/6J). To be noted: 1 mM, 24 hours, 100 mg load. Here is the method: In this example, the lenses were dissected from the eyes of mice (C57BL/6J, 5-8 months old, Jackson Laboratories, Stock No. 000664, n=4-5) by a posterior approach and incubated without (“Control”) or with Aggrelyte-2 or Aggrelyte-2C (1 mM) for 24 hours in serum-free and phenol-red-free MEM (297 mOsm) at 37° C. Lens stiffness was measured as previously described in Baradia, H. et al., (2010) Exp. Eye Res. 91, 300-307. Briefly, the lens was placed on a flat platform with the anterior side facing up, and a load was applied to the top of the lens at 100 mg increments for mouse lenses and at 250 mg increments for human lenses. The displacement in the lens axial diameter (in μm or mm) was measured using MATLAB software developed by Dr. Adrian Glasser, UK, and plotted against the load applied. The displacement at a specific load was used to determine differences in lens stiffness between the untreated control and aggrelyte-treated lenses.
Freshly obtained human lenses (42-68 years old, n=10-12) were incubated with or without Aggrelyte-2 or Aggrelyte-2C (1 mM) for a total of 72 h in phenol red-free MEM with a change in media containing freshly dissolved aggrelytes every 24 h. One lens from each donor pair was used as the control, and the other was treated with aggrelyte. After incubation, the lens stiffness was measured as described above. Axial strain was also calculated based on the following formula: […]

As to `COC(=O)[C@H](CSC(C)=O)NC(C)=O` [Aggrelyte-2, N,S-diacetyl-L-cysteine methyl ester], in data set [1] (24-hour incubation), the “protein in the supernatant” value was 0.97 to 1.30 µg/µL and the “solubilized protein, % of the initial WI protein” value is 20-26%. Moreover, the “solubilizing WI proteins, fold better than Control or Aggrelyte-2C” value in data set [1] (24 and 48 hours, combined ten lenses) is reported as approximately 1.4 fold. Also, in data set [1] (48-hour incubation), the “protein in the supernatant” value fell in the range of 0.96 to 1.48 µg/µL and the “solubilized protein, % of the initial protein” value is 19-30%. Further, in the data set on human lenses [2], the “AcK levels, cortical protein fraction (Western blot)” value is on record as “significantly increases” and the “AcK levels, nuclear protein fraction (Western blot)” value was “significantly increases”. Further, in the data set with human (60-62 years) lens, the “lens transparency compared to vehicle-treated lenses” value is given as “did not reduce or otherwise change”. In addition, the “WS content, % higher than in the untreated controls (contralateral lenses)” value in the data set with human lenses [3] is given as 13.2%. The “levels of γC vs Controls” value in the data set with γ-crystallin (γC) is “slightly but not significantly higher”. For the same molecule, in the data set with mouse lenses (6-month-old mouse lenses), the “lens stiffness vs untreated control lenses” value is given as “significantly (p<0.05) reduced the stiffness”. For the same molecule, the “axial strain vs controls” value in the data set with mouse lenses (mouse lenses) is “significantly (p<0.05) reduced the axial strain”. Moreover, the “displacement, % greater than that by Aggrelyte-2C” value in the data set with mouse lenses (mouse lenses, not significantly greater) was determined as 8.7%.

For the molecule `COC(=O)[C@H](CS)NC(C)=O` [Aggrelyte-2C, N-acetyl-L-cysteine methyl ester], in data set [1] (24-hour incubation), the “protein in the supernatant” value was 0.72 to 0.97 µg/µL and the “solubilized protein, % of the initial WI protein” value is given as 14-19%. Further, in data set [1] (48-hour incubation), the “protein in the supernatant” value lay within 0.68 to 1.12 µg/µL and the “solubilized protein, % of the initial protein” value is given as 14-22%. Further, the “protein solubility, fold less than that of Aggrelyte-2” value in data set [1] (48 hours, human lens) was approximately 1.4 fold. In the data set on human lenses [2], the “AcK levels, cortical protein fraction (Western blot)” value was “not statistically different” and the “AcK levels, nuclear protein fraction (Western blot)” value is “not statistically different”. In the data set with human (60-62 years) lens, the “lens transparency compared to vehicle-treated lenses” value is “did not reduce or otherwise change”. Moreover, the “WS content, % higher than in the untreated controls (contralateral lenses)” value with human lenses [3] worked out at 4.6%. Moreover, the “levels of γC vs Controls” value in the data set on γ-crystallin (γC) was “no effect”. For the same molecule, in the data set with mouse lenses (mouse lenses), the “axial strain vs controls” value is “did not have a significant effect”.
